From patent publication US12227515B2, “In-flow photooxygenation of aminothienopyridinones generates novel PTP4A3 phosphatase inhibitors” (University of Virginia Patent Foundation, priority 2018, dated 2025)

Key:
[1] = biological target: recombinant human His6-tagged PTP4A2 (Homo sapiens (Human), UniProt Q12974); experiment: In vitro biochemical analysis of PTP4A inhibition, DiFMUP substrate; conditions: DiFMUP 12 μM, 25 minutes, 25° C.; mean ± S.E.M.
[2] = biological target: recombinant human His6-tagged PTP4A3 (Homo sapiens (Human), UniProt O75365); experiment: as above; conditions: for preference among the PTP4A family members: PTP4A3 versus PTP4A1 and PTP4A2, from IC50 values
recombinant human His6-tagged PTP4A3, sequence (O75365 whole entry): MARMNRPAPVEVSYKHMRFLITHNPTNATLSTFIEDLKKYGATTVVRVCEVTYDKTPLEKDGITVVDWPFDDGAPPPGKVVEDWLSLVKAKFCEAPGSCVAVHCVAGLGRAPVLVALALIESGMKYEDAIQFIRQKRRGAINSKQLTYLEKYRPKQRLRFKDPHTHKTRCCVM

recombinant human His6-tagged PTP4A2, sequence (Q12974 whole entry): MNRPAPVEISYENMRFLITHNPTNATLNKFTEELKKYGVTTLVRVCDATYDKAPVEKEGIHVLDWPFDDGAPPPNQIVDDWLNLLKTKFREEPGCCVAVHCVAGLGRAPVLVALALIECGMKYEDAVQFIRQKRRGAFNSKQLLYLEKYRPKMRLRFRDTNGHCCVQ

**Q.** How did the IC50 [1] turn out when `N=C1C(=O)NC(=O)c2cc(-c3ccccc3Cl)sc21` [Compound 9k, 2-(2-Chlorophenyl)-7-iminothieno[3,2-c]pyridine-4,6(5H,7H)-dione] was run?
**A.** The IC50 was 113 nM.

**Q.** What about the “preference among the PTP4A family members” value [2] of the same compound?
**A.** The value was “even more pronounced preference for PTP4A3 compared with PTP4A2”.

**Q.** With `N=C1C(=O)NC(=O)c2cc(-c3ccc(OCCN4CCOCC4)cc3)sc21` [Compound 9o, 7-Imino-2-(4-(2-morpholinoethoxy)phenyl)thieno[3,2-c]pyridine-4,6(5H,7H)-dione] as the compound, how does the “preference among the PTP4A family members” value [2] read?
**A.** The value was “little preference”.

**Q.** With `CN1C(=O)C(=N)c2sc(-c3ccccc3)cc2C1=O` [Compound 9p, 7-Imino-5-methyl-2-phenylthieno[3,2-c]pyridine-4,6(5H,7H)-dione] as the compound, how does the IC50 [1] read?
**A.** The IC50 was 264 nM.

**Q.** What about the “preference among the PTP4A family members” value [2] of the same compound?
**A.** Its value is “even more pronounced preference for PTP4A3 compared with PTP4A2”.

**Q.** For `O=c1[nH]c(=O)c2cc(-c3ccccc3)sc2[nH]1` [JMS-038, 6-phenylthieno[2,3-d]pyrimidine-2,4(1H,3H)-dione, reference compound], which “IC50 PTP4A3” value ([2]; DiFMUP 12 μM, 25 minutes, 25° C., mean ± S.E.M.) is on record?
**A.** Its value is “failed to inhibit PTP4A3”.
